Patent US20190083420A1, “METHODS OF USING (2R, 6R)-HYDROXYN[…] (2S, 6S)-HYDROXYN[…] THE TREATMENT OF DEPRESSION, ANXIETY, ANHEDONIA, FATIGUE, SUICIDAL IDEATION, AND POST TRAUMATIC STRESS DISORDERS” (The Uinited States of America, as represented by the …, priority 2016, published 2019)
“Also recorded” adds a separate entry of the source.

Assays:
mice = assay: Accelerating rotarod (motor coordination); format: in vivo; conditions: 5-60 min post-injection, i.p.
Procedure: The rotarod test was conducted to compare the effects of ketamine, (2S,6S)-HNK and (2R,6R)-HNK on motor coordination. The experiment consisted of two phases: training phase (4 days) and a test phase (1 day). On each of the training days five trials (trial time: 3 min) were conducted with an inter-trial interval of two min Mice were individually placed on the rotarod apparatus (HTC Life Science; Woodland Hills, Calif., USA) and the rotor (3.75 inch diameter) accelerated from 5-20 RPM over a period of three minutes. Latency to fall was recorded for each trial. Animals with an average of <100 sec of latency to fall during the last training day were excluded from the experiment. On the test day (day 5), mice received (i.p.) injections of saline, (R,S)-KET (10 mg/kg), (2S,6S)-HNK (25 or 125 mg/kg) or (2R,6R)-HNK (2.5 or 125 mg/kg) and were tested in the rotating rod 5-. 10-, 15-, 20-, 30- and 60-min post-injection using the same procedure described for the training days.

mTOR = assay: Western blot of synaptoneurosomes, mTOR and phosphorylated mTOR; format: in vivo, mice
Procedure: (§1) To purify synaptoneurosomes, mouse prefrontal cortex or hippocampus were dissected and homogenized in Syn-PER Reagent (ThermoFisher Scientific, Waltham, Mass., USA; Cat #87793) with 1× protease and phosphatase inhibitor cocktail (ThermoFisher Scientific, Waltham, Mass., USA; Cat #78440). The homogenate was centrifuged for 10 min at 1,200×g at 4° C. The supernatant was centrifuged at 15,000×g for 20 min. After centrifugation, the supernatant the pellet (synaptosomal fraction) was re-suspended and sonicated in N-PER Neuronal Protein Extraction Reagent (ThermoFisher Scientific, Waltham, Mass., USA; Cat #87792). For total homogenous tissue lysates, mouse prefrontal cortex or hippocampus were homogenized and sonicated in N-PER Neuronal Protein Extraction Reagent with 1× protease & phosphatase inhibitor cocktail) Protein concentration was determined via the BCA protein assay kit (ThermoFisher Scientific, Waltham, Mass., USA; Cat #23227).
(§2) For western blotting, equal amount of proteins (10-40 μg as optimal for each antibody) for each sample were loaded into NuPage 4-12% Bis-Tris gel for electrophoresis. Nitrocellulose membranes with transferred proteins were blocked with 5% milk in TBST (TBS+0.1% Tween-20) for 1 hour and kept with primary antibodies overnight at 4° C. The following primary antibodies were used: phospho-eEF2 (Cell Signaling Technology, Danvers, Mass., USA; Cat #2331), total eEF2 (Cell Signaling Technology, Danvers, Mass., USA; Cat #2332), phospho-mTOR (Cell Signaling Technology, Danvers, Mass., USA; Cat #2971), total mTOR (Cell Signaling Technology, Danvers, Mass., USA; Cat #2983), GluR1 (Cell Signaling Technology, Danvers, Mass., USA; […]), GluR2 (Cell Signaling Technology, Danvers, Mass., USA; Cat #13607), BDNF (Santa Cruz Biotechnology, Dallas, Tex., USA; Cat # sc-546), and GAPDH (Abcam, Cambridge, Mass., USA; Cat # ab8245). The next day, blots were washed three times in PBST and incubated with horseradish peroxidase conjugated anti-mouse or anti-rabbit secondary antibody (1:5000 to 1:10000) for 1 hour. After final three washes with TBST, bands were detected using enhanced chemiluminescence (ECL) with the Syngene Imaging System (G:Box ChemiXX9). After imaging, the blots then were incubated in the stripping buffer (ThermoFisher Scientific, Waltham, Mass., USA; Cat #46430) for 10-15 min at room temperature followed by three time washes with TBST. The stripped blots were washed in blocking solution for 1 hour and incubated with the primary antibody directed against total levels of the respective protein or GAPDH for loading control. Densitometric analysis of phospho- and total immunoreactive bands for each protein was conducted using Syngene's GenTools software Immunoreactivity was normalized to the saline treated control group for each protein.

male CD-1 mice = assay: Learned helplessness (LH); format: in vivo; conditions: single injection
Excerpt: Male CD-1 mice (8-10 weeks old, Charles River Laboratories, Mass., USA) were housed in groups of four-five per cage with a constant 12-hour light/dark cycle (lights on/off at 07:00/19:00). Food and water were available ad libitum. Mice acclimatized to the new environment for seven days prior to the start of the experiments. For the whole-cell NMDA current electrophysiological recordings, male Sprague-Dawley rats (housed three per cage; Charles River, Wilmington, Mass.) were used. EPSC recording were done from rats at postnatal day 24-25. All experimental procedures were approved by the University of Maryland, Baltimore Animal Care and Use Committee and were conducted in full accordance with the National Institutes of Health Guide for the Care and Use of Laboratory Animals.
The LH paradigm consisted of three different phases, i.e., inescapable shock training, LH screening, and the LH test. For the inescapable shock portion of the test (Day 1), the animals were placed in one side of two-chambered shuttle boxes (34 cm height×37 cm width×18 cm depth; Coulbourn Instruments, PA, USA), with the door between the chambers closed. Following a five-min adaptation period, 120 inescapable foot-shocks (0.45 mA, 15 sec duration, randomized average inter-shock interval of 45 sec) were delivered through the grid floor. During the screening session (Day 2), the mice were placed in one of the two chambers of the apparatus for 5 min. A shock (0.45 mA) was then delivered, and the door between the two chambers was raised simultaneously. Crossing over into the second chamber terminated the shock. […] A total of 30 screening trials of escapable shocks were presented to each mouse with an average of 30 sec delay between each trial. Mice that developed helplessness behavior (>5 escape failures during the last 10 screening shocks) were administered with the respective drug 24 hours following screening (Day 3). During the LH test phase (Day 4), the animals were placed in the shuttle boxes and, after a 5-min adaptation period, a 0.45 mA shock was delivered concomitantly with door opening for the first five trials, followed by a 2-sec delay for the next 40 trials. Crossing over to the second chamber terminated the shock. […] A total of 45 trials of escapable shock were presented to each mouse with 30 sec inter-trial intervals. The number of escape failures was recorded for each mouse.

BDNF = assay: Western blot of synaptoneurosomes, BDNF levels; format: in vivo, mice; conditions: for mBDNF levels: hippocampus, 24 hours post-administration, 10 mg/kg; for proBDNF / mBDNF levels: prefrontal cortex
Procedure: as §1, §2

[1] = hippocampus, 1- or 24-hours post-injection, 10 mg/kg

SMILES: N[C@@]1(c2ccccc2Cl)CCC[C@@H](O)C1=O [(2R,6R)-HNK, (2R,6R)-2-amino-2-(2-chlorophenyl)-6-hydroxycyclohexanone]
- motor coordination in the rotarod (mice): did not affect coordination
- mTOR / phosphorylated mTOR synaptoneurosome levels (mTOR; [1]): not observed
- mTOR / phosphorylated mTOR synaptoneurosome levels (mTOR; hippocampus, 1- or 24-hours post-injection, 10 mg/kg, listed as (2R,6R)-hydroxynorketamine): did not alter synaptoneurosome levels of mTOR or phosphorylated mTOR
- mTOR / phosphorylated mTOR synaptoneurosome levels (mTOR; prefrontal cortex): not observed; also recorded: did not alter
- doses with antidepressant-like effects in learned helplessness (male CD-1 mice): 5 to 75 mg/kg
- antidepressant-like effect in learned helplessness (escape failures) (male CD-1 mice; test 24 hours after administration): greater potency and longer-lasting antidepressant-like effects; also recorded: dose-dependent antidepressant-like responses; also recorded: more potent antidepressant effects; also recorded: dose-dependent antidepressant action
- mBDNF levels (BDNF; listed as (2R,6R)-hydroxynorketamine): increased mBDNF levels
- proBDNF / mBDNF levels (BDNF): did not alter

SMILES: CNC1(c2ccccc2Cl)CCCCC1=O (racemic) [ketamine, (R,S)-ketamine, reference compound]
- mTOR / phosphorylated mTOR synaptoneurosome levels (mTOR; [1]): not observed
- mTOR / phosphorylated mTOR synaptoneurosome levels (mTOR; hippocampus, 1- or 24-hours post-injection, 10 mg/kg, listed as (R,S)-ketamine): did not alter synaptoneurosome levels of mTOR or phosphorylated mTOR
- mTOR / phosphorylated mTOR synaptoneurosome levels (mTOR; prefrontal cortex): not observed
- mTOR / phosphorylated mTOR synaptoneurosome levels (mTOR; prefrontal cortex, listed as (R,S)-KET): did not alter
- mBDNF levels (BDNF): increased hippocampal BDNF
- mBDNF levels (BDNF; listed as (R,S)-ketamine): increased mBDNF levels
- proBDNF / mBDNF levels (BDNF): did not alter
